Results published in patent publication US6482921B1, “Uridyl peptide antibiotic (UPA) derivatives, their synthesis and use” (Essential Therapeutics, Inc., priority 1999, dated 2002).
≈ marks a conversion by molar mass, not a printed value.

What was measured:
Format in all cases: cell-based
[1] = system: Pseudomonas aeruginosa PAM 1020; experiment: MIC broth microdilution, P. aeruginosa PAM 1020 (wild type); conditions: P. aeruginosa PAM 1020
[2] = system: Pseudomonas aeruginosa PAM 1154; experiment: MIC broth microdilution, P. aeruginosa PAM 1154 (OprM::Hg); conditions: P. aeruginosa PAM 1154 OprM::Hg
[3] = system: Pseudomonas aeruginosa PAM 1135; experiment: MIC broth microdilution, P. aeruginosa PAM 1135 (high level UPA resistance); conditions: P. aeruginosa PAM 1135 UPA1^r
[4] = system: Pseudomonas aeruginosa PAM 1323; experiment: MIC broth microdilution, P. aeruginosa PAM 1323 (medium level UPA resistance)
Experimental: Compounds were tested against several panels of bacteria. In a first panel, Table 3, several strains of Pseudomonas aeruginosa, Escherichia coli and Staphylococcus aureus were employed as the target bacteria.
For the bacteria in Table 3, the assay was performed in Mueller-Hinton Broth (MHB) with a final bacterial inoculum of 5×10^5 CFU/ml and a final volume of 100 μl. Control drugs, including imipenem and pacidimycin 4, and the test compounds were prepared at a concentration which was twice the desired final concentration (256 μg/ml). Dilution of the controls and the test compounds was accomplished directly on the test plates by serial 2-fold dilution using a multi-channel pipette. Both a positive and a negative growth control was included in each plate.
The bacterial inocula were prepared as follows. Bacterial strains were grown overnight at 35° C. in MHB. […] The culture was then diluted 1:10 and allowed to grow for an additional one hour at 35° C. in a shaking incubator. The inocula were then prepared by diluting the early log phase (one hour) cultures 1:2000 with fresh MHB. A volume of 50 μl of the inocula was added to each well, resulting in an inoculum of approximately 5×10^5 CFU/ml. The exact inocula were determined by putting 10 μl of 10-fold serial dilution of the bacterial suspensions onto TSA. After overnight incubation at 35° C., colony-forming units were counted manually.
The microtiter plates were incubated for 20 hours at 35° C. and were then read using a microtiterplate reader (Molecular Devices) at 650 nm as well as being visually observed using a microtiterplate reading mirror.

Escherichia Coli MC 4100 = experiment: MIC broth microdilution, E. coli MC 4100 (wild type); conditions: E. coli MC 4100
[5] = system: Escherichia Coli MC 4100 AcrAB; experiment: MIC broth microdilution, E. coli MC 4100 AcrAB (ΔAcrAB); conditions: E. coli AcrAB
[6] = system: Escherichia Coli MC 4100 AcrAB UPA3r; experiment: MIC broth microdilution, E. coli MC 4100 AcrAB UPA3r (ΔAcrAB, UPA resistant); conditions: E. coli AcrAB UPA3^r
[7] = system: Staphylococcus aureus ATCC 29213; experiment: MIC broth microdilution, S. aureus ATCC 29213 (wild type); conditions: S. aureus ATCC 29213
[8] = system: Staphylococcus aureus 8325-4; experiment: MIC broth microdilution, S. aureus 8325-4 (wild type); conditions: S. aureus 8325-4
[9] = system: Pasteurella multocida pm002; experiment: MIC broth microdilution, P. multocida pm002 (wild type)

Molecule: 1-[5′-[(2S,3S)-N^2-[N-[[(1S)-1-Carboxy-2-indol-3-ylethyl]carbamoyl]-L-alanyl]-N^3-L-3-hydroxyphenylalanyl-N^3-methyl-2,3-diaminobutyramidol-3′,5′-dideoxy-α-L-arabinofuranosyl]uracil [Compound 103]
- MIC (μg/ml) Broth microdilution [1]: 16 µg/mL
- MIC (μg/ml) Broth microdilution [2]: 8 µg/mL
- MIC (μg/ml) Broth microdilution [3]: >512 µg/mL
- MIC (μg/ml) Broth microdilution [4]: 512 µg/mL
- MIC (μg/ml) Broth microdilution (Escherichia Coli MC 4100): 512 µg/mL
- MIC (μg/ml) Broth microdilution [5]: 2 µg/mL
- MIC (μg/ml) Broth microdilution [6]: 32 µg/mL
- MIC (μg/ml) Broth microdilution [7]: 512 µg/mL
- MIC (μg/ml) Broth microdilution [8]: 256 µg/mL
- MIC (μg/ml) Broth microdilution [9]: 256 µg/mL

Molecule: 1-[5′-[(2S,3S)-N^3-L-Alanyl-N^2-[(2R)-2-benzyl-N-[(1S)-1-carboxy-2-indol-3-ylethyl]succinimoyl]-N^3-methyl-2,3-diaminobutyramido]-3′,5′-dideoxy-α-L-arabinofuranosyl]uracil [Compound 154]
- MIC (μg/ml) Broth microdilution [1]: 64 µg/mL
- MIC (μg/ml) Broth microdilution [2]: 8 µg/mL
- MIC (μg/ml) Broth microdilution [3]: >512 µg/mL
- MIC (μg/ml) Broth microdilution [4]: >512 µg/mL
- MIC (μg/ml) Broth microdilution (Escherichia Coli MC 4100): >512 µg/mL
- MIC (μg/ml) Broth microdilution [5]: 8 µg/mL
- MIC (μg/ml) Broth microdilution [6]: 128 µg/mL
- MIC (μg/ml) Broth microdilution [7]: >512 µg/mL
- MIC (μg/ml) Broth microdilution [8]: >512 µg/mL
- MIC (μg/ml) Broth microdilution [9]: >512 µg/mL

Molecule: 1-[5′-[(2S,3S)-N^3-L-Alanyl-N^2-[N-([(1S)-1-carboxy-phenethyl]carbamoyl]-L-leucinyl]-N^3-methyl-2,3-diaminobutyramido]-3′,5′-dideoxy-α-L-arabinofuranosyl]uracil [Compound 166]
- MIC (μg/ml) Broth microdilution [1]: >512 µg/mL
- MIC (μg/ml) Broth microdilution [2]: >512 µg/mL
- MIC (μg/ml) Broth microdilution [3]: >512 µg/mL
- MIC (μg/ml) Broth microdilution [4]: >512 µg/mL
- MIC (μg/ml) Broth microdilution (Escherichia Coli MC 4100): >512 µg/mL
- MIC (μg/ml) Broth microdilution [5]: 16 µg/mL
- MIC (μg/ml) Broth microdilution [6]: 256 µg/mL
- MIC (μg/ml) Broth microdilution [7]: >512 µg/mL
- MIC (μg/ml) Broth microdilution [8]: >512 µg/mL
- MIC (μg/ml) Broth microdilution [9]: 512 µg/mL

Molecule: 1-[5′[(2S,3S)-N^2-[N-[[(1S)-1-Carboxy-4-hydroxyphenethyl]carbamoyl]-L-4-fluorophenylalanyl)-N^3-L-phenylalanyl-N^3-methyl-2,3-diaminobutyramido]-3′,5′-dideoxy-β-L-arabinofuranosyl]uracil [Compound 106]
- MIC (μg/ml) Broth microdilution [1]: 32 µg/mL
- MIC (μg/ml) Broth microdilution [2]: 64 µg/mL
- MIC (μg/ml) Broth microdilution [3]: 256 µg/mL
- MIC (μg/ml) Broth microdilution [4]: 256 µg/mL
- MIC (μg/ml) Broth microdilution (Escherichia Coli MC 4100): 512 µg/mL
- MIC (μg/ml) Broth microdilution [5]: 8 µg/mL
- MIC (μg/ml) Broth microdilution [6]: 512 µg/mL
- MIC (μg/ml) Broth microdilution [7]: >512 µg/mL
- MIC (μg/ml) Broth microdilution [8]: >512 µg/mL
- MIC (μg/ml) Broth microdilution [9]: 512 µg/mL

Molecule: CC(C(NC(=O)C(Cc1ccccc1)NC(=O)NC(Cc1c[nH]c2ccccc12)C(=O)O)C(=O)NCC1CC(O)C(n2ccc(=O)[nH]c2=O)O1)N(C)C(=O)C(N)CCCCN [Compound 147, 1-[5′-[(2S,3S)-N^2-[N-[[(1S)-1-Carboxy-2-indol-3-ylethyl]carbamoyl]-L-phenylalanyl]-N^3-L-lysinyl-N^3-methyl-2,3-diaminobutyramido]-3′,5′-dideoxy-α-L-arabinofuranosyl]uracil]
- MIC (μg/ml) Broth microdilution [1]: 32 µg/mL (≈ 37.8 µM)
- MIC (μg/ml) Broth microdilution [2]: 16 µg/mL (≈ 18.9 µM)
- MIC (μg/ml) Broth microdilution [3]: >512 µg/mL
- MIC (μg/ml) Broth microdilution (Escherichia Coli MC 4100): >512 µg/mL
- MIC (μg/ml) Broth microdilution [5]: >512 µg/mL
- MIC (μg/ml) Broth microdilution [6]: >512 µg/mL
- MIC (μg/ml) Broth microdilution [7]: >512 µg/mL
- MIC (μg/ml) Broth microdilution [8]: >512 µg/mL

Molecule: CC(C)C[C@H](NC(=O)N[C@@H](Cc1c[nH]c2ccccc12)C(=O)O)C(=O)N[C@H](C(=O)NC[C@H]1C[C@@H](O)[C@H](n2ccc(=O)[nH]c2=O)O1)[C@H](C)N(C)C(=O)[C@H](C)N [Compound 170, 1-[5′-[(2S,3S)-N^3-L-Alanyl-N^2-[N-[[(1S)-1-carboxy-2-indol-3-ylethyl)carbamoyl]-L-leucinyl]-N^3-methyl-2,3-diaminobutyramido]-3′,5′-dideoxy-α-L-arabinofuranosyl]uracil]
- MIC (μg/ml) Broth microdilution [1]: 64 µg/mL (≈ 84.7 µM)
- MIC (μg/ml) Broth microdilution [2]: 4 µg/mL (≈ 5.29 µM)
- MIC (μg/ml) Broth microdilution [3]: >512 µg/mL
- MIC (μg/ml) Broth microdilution (Escherichia Coli MC 4100): 128 µg/mL (≈ 169 µM)
- MIC (μg/ml) Broth microdilution [5]: 2 µg/mL (≈ 2.65 µM)
- MIC (μg/ml) Broth microdilution [6]: 1 µg/mL (≈ 1.32 µM)
- MIC (μg/ml) Broth microdilution [7]: >512 µg/mL
- MIC (μg/ml) Broth microdilution [8]: >512 µg/mL

Molecule: C[C@H](NC(=O)N[C@@H](Cc1c[nH]c2ccccc12)C(=O)O)C(=O)N[C@H](C(=O)NC[C@H]1C[C@@H](O)[C@H](n2ccc(=O)[nH]c2=O)O1)[C@H](C)N(C)C(=O)[C@@H](C)N [Compound 171, 1-[5′-[(2S,3S)-N^3-D-Alanyl-N^2-[N-[[(1S)-1-carboxy-2-indol-3-ylethyl]carbamoyl]-L-alanyl]-N^3-methyl-2,3-diaminobutyramido]-3′,5′-dideoxy-α-L-arabinofuranosyl]uracil]
- MIC (μg/ml) Broth microdilution [1]: 512 µg/mL (≈ 717 µM)
- MIC (μg/ml) Broth microdilution [2]: 32 µg/mL (≈ 44.8 µM)
- MIC (μg/ml) Broth microdilution [3]: >512 µg/mL
- MIC (μg/ml) Broth microdilution (Escherichia Coli MC 4100): >512 µg/mL
- MIC (μg/ml) Broth microdilution [5]: 16 µg/mL (≈ 22.4 µM)
- MIC (μg/ml) Broth microdilution [6]: 128 µg/mL (≈ 179 µM)
- MIC (μg/ml) Broth microdilution [7]: >512 µg/mL
- MIC (μg/ml) Broth microdilution [8]: >512 µg/mL

Molecule: C[C@H](N)C(=O)N(C)[C@@H](C)[C@H](NC(=O)[C@H](C)NC(=O)N[C@@H](Cc1c[nH]c2ccccc12)C(=O)O)C(=O)NC[C@@H]1C[C@@H](O)[C@@H](n2ccc(=O)[nH]c2=O)O1 [Compound 172, 1-[5′-[(2S,3S)-N^3-L-Alanyl-N^2-[N-[[(1S)-1-carboxy-2-indol-3-ylethyl]carbamoyl]-L-alanyl]-N^3-methyl-2,3-diaminobutyramido]-3′,5′-dideoxy-α-D-ribofuranosyl]uracil]
- MIC (μg/ml) Broth microdilution [1]: 64 µg/mL (≈ 89.7 µM)
- MIC (μg/ml) Broth microdilution [2]: 4 µg/mL (≈ 5.6 µM)
- MIC (μg/ml) Broth microdilution [3]: >512 µg/mL
- MIC (μg/ml) Broth microdilution (Escherichia Coli MC 4100): 16 µg/mL (≈ 22.4 µM)
- MIC (μg/ml) Broth microdilution [5]: 128 µg/mL (≈ 179 µM)
- MIC (μg/ml) Broth microdilution [6]: 16 µg/mL (≈ 22.4 µM)
- MIC (μg/ml) Broth microdilution [7]: 512 µg/mL (≈ 717 µM)
- MIC (μg/ml) Broth microdilution [8]: >512 µg/mL

Molecule: Dihydropacidamycin 1 [Compound 5]
- MIC (μg/ml) Broth microdilution [1]: 64 µg/mL
- MIC (μg/ml) Broth microdilution [2]: 16 µg/mL
- MIC (μg/ml) Broth microdilution [3]: >512 µg/mL
- MIC (μg/ml) Broth microdilution (Escherichia Coli MC 4100): 512 µg/mL
- MIC (μg/ml) Broth microdilution [5]: 8 µg/mL
- MIC (μg/ml) Broth microdilution [6]: 32 µg/mL
- MIC (μg/ml) Broth microdilution [7]: >512 µg/mL
- MIC (μg/ml) Broth microdilution [8]: >512 µg/mL
